Assay results as given in patent US20110009628A1, “Compounds and Compositions for Modulating Lipid Levels and Methods of Preparing Same” (priority 2009, published 2011).

Assays:
[1] = tested on: LDLR ligand uptake activity in HepG2 cells; assay: DiI-LDL uptake in HepG2 cells (Example 6); format: cell-based, human; conditions: 20 hours; further: key: +: slightly increased fluorescent intensity over control; ++: modestly increased fluorescent intensity over control; +++: strongly increased fluorescent intensity over control
Protocol: HepG2 cells (2×10^5 cells/well) in 24-well culture plates were treated with various compounds at indicated concentrations for 20 hours. The fluorescent 1.1′-dioctadecyl-3,3,3′,3′-tetramethylindocarbocyanin perchlorate (DiI-LDL) (Biomedical Technologies, Stoughton, Mass.) at a concentration of 2 μg/mL was added to cells at the end of treatment. After 4 hours, the medium was removed, cells were washed with cold PBS, and were examined immediately under a fluorescent microscope (Nikon) at 200× amplification. The fluorescent intensity in compound-treated cells was compared to that in untreated control cells. […] In these experiments berberine chloride was used for comparison.

[2] = tested on: LDLR mRNA expression in HepG2 cells; assay: LDLR mRNA expression in HepG2 cells, semi-quantitative RT-PCR; format: cell-based, human; conditions: 8 hours, FIG. 1
Protocol: HepG2 cells obtained from American Tissue Culture Collection (Manassas, Va., USA) were seeded in 6-well culture plates at a density of 0.8×10^6 cells/well cultured in EMEM containing 0.5% FBS and were treated with each purified compound at indicated doses for 8 hours. Total RNA was isolated, and 2 μg per sample was reverse transcribed with random primers using M-MLV (Promega) at 37° C. for 1 hour. PCR was carried out at 94° C. for 30 sec, 60° C. for 30 sec, and 72° C. for 30 sec with initial activation of the enzyme at 94° C. for 1 minute. Thirty cycles were performed for LDLR and GAPDH. PCR was performed using primers HLDLR-up and HLDLR-lo for LDLR and primers HGAPDH-up and HGAPDH-lo for GAPDH. The PCR products were separated on a 1% agarose gel and the band intensity was quantitated. LDLR mRNA levels were corrected by measuring GAPDH mRNA levels.

[3] = tested on: intracellular triglyceride in HepG2 cells; assay: Reduction of intracellular triglyceride in HepG2 cells (Example 8); format: cell-based, human
Description: Berberine chloride was used for comparison. The amount of TG in untreated control cells was defined as 100% and the amounts of TG in compound-treated cells were divided to that value.

[4] = tested on: LDLR mRNA expression in HepG2 cells; assay: LDLR mRNA expression in HepG2 cells, quantitative real-time RT-PCR (Example 7); format: cell-based, human; conditions: dose less than or equal to 10 μM, 24 hours
Protocol: In yet another experiment, HepG2 cells were treated with various compounds for 24 hours at the indicated doses. Total RNA was isolated and 2 μg was used to generate cDNA in a reaction containing random primers and M-MLV at 37° C. for 1 hour in a volume of 25 μL. Real-time PCR was performed on the cDNA using MCEP REALPLEX 2 SYSTEM (Eppendorf) and Universal MasterMix (Applied Biosystems). Human LDLR and GAPDH Pre-Developed TaqMan Assay Reagents (Applied Biosystems) were used to assess the levels of mRNA expressions in HepG2. The levels of LDLR mRNA were normalized to that of GAPDH. Each RNA samples was assayed in triplicate. The abundance of LDLR mRNA in untreated cells was defined as 1, and the amounts of LDLR mRNA from compound-treated cells were plotted relative to that value in FIG. 2B. The data shown are mean±s.d.
Activities of some compounds of Formulas I, II and EE on LDLR mRNA expression were determined. HepG2 cells were treated with new compounds individually at a dose less than or equal to 10 μM for 24 hours. […] In these experiments, berberine chloride was included for comparison.

[5] = Stability of compound 69 under cell culture conditions, LC-MS of medium; format: in vitro ADME, human; conditions: for Peak Area m/z 466.1: 20 μM in HepG2 culture medium
Protocol: HepG2 cells were cultured in 6-well cell culture plate in EMEM containing 0.5% FBS overnight. Compound 69+ was added to the culture medium to a final concentration of 20 μM. Medium was collected at 0 (control), 4, 8, or 24 hours after the compound addition.
The collected media were analyzed by LC-MS on a Thermo Fisher Scientific Surveyor HPLC system and LCQ ion trap MS with electrospray ionization source. A 50×2. 1 mm Hypersil Gold C18 3 um column was used with a flow rate of 200 uL/min. The method conditions were 98% A (0.1% formic acid in water)/2% B (0.1% formic acid in acetonitrile) then a gradient to 95% B in 10 minutes. The injection volume was 10 uL.

SMILES | Activity on LDLR mRNA expression (Fold of control) [4] | Activity on DiI-LDL uptake ([1]; A, compound dose ≦10 μM) | other results
COc1cc2c(cc1OC)[C@H]1[C@@H](C)c3ccc(OC)c(OC)c3CN1CC2 [14R,13S-(+)-CRDL] |  |  | Activity on DiI-LDL uptake ([1]; B, compound dose ≦40 μM): ++; effects on LDLR mRNA expression [2]: potent and dose-dependent effects
COc1cc2c(cc1OC)[C@H]1Cc3ccc(OC)c(OC)c3CN1CC2 [14R-(+)-THP, 14R-tetrahydropalmatine, reference compound] |  |  | Activity on DiI-LDL uptake ([1]; B, compound dose ≦40 μM): ++; effects on LDLR mRNA expression [2]: potent and dose-dependent effects
COc1ccc2cc3[n+](cc2c1OC)CCc1cc2c(cc1-3)OCO2 [Berberine, reference compound] | 1.30 ± 0.11 Fold of control |  | Activity on DiI-LDL uptake ([1]; B, compound dose ≦40 μM): +; Activity on reduction of cellular TG accumulation (% of control) ([3]; B, compound dose ≦40 μM): 70.9 ± 5.4 % of control
COc1cc2c(cc1OC)C1Cc3cccc(OC)c3CN1CC2 (stereo not shown) [Compound 22, 2,3,9-trimethoxy-5,6,7,8,13,13a-hexahydroisoquinolino[3,2-a]isoquinoline] |  |  | Activity on reduction of cellular TG accumulation (% of control) ([3]; B, compound dose ≦40 μM): 53.35 ± 12.68 % of control
COc1ccc2c(c1OS(=O)(=O)c1ccc(C(C)(C)C)cc1)CN1CCc3cc4c(cc3C1C2)OCO4 (stereo not shown) [Compound 38, 10-methoxy-5,6,7,8,13,13a-hexahydro-2H-1,3-dioxolano[4,5-g]isoquinolino[3,2-a]isoquinolin-9-yl 4-(tert-butyl)benzenesulfonate] | 1.82 ± 0.10 Fold of control | ++ | 
COc1ccc2c(c1OC(=O)NC(C)C)CN1CCc3cc4c(cc3C1C2)OCO4 (stereo not shown) [Compound 41, (10-methoxy(5,6,7,8,13,13a-hexahydro-2H-1,3-dioxolano[4,5-g]isoquinolino[3,2-a]isoquinolin-9-yloxy))-N-(methylethyl)carboxamide] | 1.60 ± 0.03 Fold of control | ++ | 
COc1ccc2c(c1OC(=O)N(C)C)CN1CCc3cc4c(cc3C1C2)OCO4 (stereo not shown) [Compound 43, (10-methoxy(5,6,7,8,13,13a-hexahydro-2H-1,3-dioxolano[4,5-g]isoquinolino[3,2-a]isoquinolin-9-yloxy))-N,N-dimethylcarboxamide] | 1.95 ± 0.18 Fold of control | ++ | 
COc1ccc2c(c1OC(=O)Nc1ccc(OC(F)(F)F)cc1)CN1CCc3cc4c(cc3C1C2)OCO4 (stereo not shown) [Compound 44, (10-methoxy(5,6,7,8,13,13a-hexahydro-2H-1,3-dioxolano[4,5-g]isoquinolino[3,2-a]isoquinolin-9-yloxy))-N-[4-(trifluoromethoxy)phenyl] carboxamide] | 2.20 ± 0.06 Fold of control | ++ | 
COc1cc(NC(=O)Oc2c(OC)ccc3c2CN2CCc4cc5c(cc4C2C3)OCO5)cc(OC)c1 (stereo not shown) [Compound 45, N-(3,5-dimethoxyphenyl)(10-methoxy(5,6,7,8,13,13a-hexahydro-2H-1,3-dioxolano[4,5-g]isoquinolino[3,2-a]isoquinolin-9-yloxy))carboxamide] | 2.09 ± 0.11 Fold of control | ++ | 
COc1ccc2c(c1OC(=O)Nc1cccc(C)c1)CN1CCc3cc4c(cc3C1C2)OCO4 (stereo not shown) [Compound 46, (10-methoxy(5,6,7,8,13,13a-hexahydro-2H-1,3-dioxolano[4,5-g]isoquinolino[3,2-a]isoquinolin-9-yloxy))-N-(3-methylphenyl)carboxamide] | 1.80 ± 0.16 Fold of control | ++ | 
COc1ccc2c(c1OS(=O)(=O)c1ccccc1C)CN1CCc3cc4c(cc3C1C2)OCO4 (stereo not shown) [Compound 50, 10-methoxy-5,6,7,8,13,13a-hexahydro-2H-1,3-dioxolano[4,5-g]isoquinolino[3,2-a]isoquinolin-9-yl 2-methylbenzenesulfonate] | 4.74 ± 0.96 Fold of control | +++ | 
COc1ccc2c(c1OS(=O)(=O)c1cccs1)CN1CCc3cc4c(cc3C1C2)OCO4 (stereo not shown) [Compound 56, 10-methoxy-5,6,7,8,13,13a-hexahydro-2H-1,3-dioxolano[4,5-g]isoquinolino[3,2-a]isoquinolin-9-yl thiophene-2-sulfonate] | 3.18 ± 0.63 Fold of control | +++ | 
COc1ccc2c(c1OS(=O)(=O)c1ccccc1)CN1CCc3cc4c(cc3C1C2)OCO4 (stereo not shown) [Compound 69, 9-benzenesulfonyloxy-10-methoxy-5,8,13,13a-tetrahydro-6H-[1,3]dioxolo[4,5-g]isoquino[3,2-a]isoquinoline] | 2.21 ± 0.09 Fold of control | +++ | Peak Area m/z 466.1 ([5]; 0 (control) hours): 2.38e8; Peak Area m/z 466.1 ([5]; 4 h): 9.67e7; Peak Area m/z 466.1 ([5]; 8 h): 9.22e7; Peak Area m/z 466.1 ([5]; 24 h): 7.03e7; stability under cell culture conditions ([5]; HepG2 culture medium, up to 24 hours): fairly stable under cell culture conditions; Activity on reduction of cellular TG accumulation (% of control) ([3]; A, compound dose ≦10 μM): 60.4 ± 7.34 % of control
COc1ccc2c(c1OCCO)CN1CCc3cc4c(cc3C1C2)OCO4 (stereo not shown) [Compound 82, 9-O-2-(1′-hydroxy-ethyl)-10-methoxy-5,8,13,13a-tetrahydro-6H-[1,3]dioxolo[4,5-g]isoquino[3,2-a]isoquinoline] |  |  | Activity on reduction of cellular TG accumulation (% of control) ([3]; B, compound dose ≦40 μM): 53.2 ± 21.3 % of control
CCOC(=O)COc1c(OC)ccc2c1CN1CCc3cc4c(cc3C1C2)OCO4 (stereo not shown) [Compound 83, 2-[10-methoxy-5,8,13,13a-tetrahydro-6H-[1,3]dioxolo[4,5-g]isoquino[3,2-a]isoquinoline-9-yl]-acetic esate] |  |  | Activity on reduction of cellular TG accumulation (% of control) ([3]; B, compound dose ≦40 μM): 63.0 ± 0.90 % of control
